Data on 2 compounds can be found in patent US12545677B2, “Compounds useful as factor XIa inhibitors” (JANSSEN PHARMACEUTICA NV, priority 2020, dated 2026).

The structures appear in SMILES notation. Read-outs that look alike come from different tables or passages of the source.

The test system of one data set is human hepatocytes. As to the kind of experiment: In vitro metabolism in human cryopreserved hepatocytes. Format: in vitro ADME. On the procedure: In Vitro Metabolism of in Human Cryopreserved Hepatocytes
The human hepatocytes used for in vitro metabolism of the compound of formula (I-A) were purchased from Bioreclamation IVT (Westbury, NY); cryopreserved human hepatocytes (lot number: UYG).
Cryopreserved hepatocytes were rapidly thawed […] vials were placed in a 37° C. water bath for approximately 90 sec, then immediately added to pre-warmed hepatocyte thawing media. The cells were resuspended within the media and then centrifuged at 700×g for 7 minutes at room temperature.
The supernatant was discarded, and the cells were resuspended in 2 mL of Krebs-Henseleit buffer containing 12.5 mM HEPES pH 7.4 (KHB). Cell viability and yield were determined by Trypan Blue exclusion. The hepatocytes were then diluted in KHB to a cell concentration of 2×10^6 cells/mL (500 μL/well in 10 mL glass tubes). The tubes were placed on a rotary shaker in a humidifier incubator supplied with 5% CO2 and allowed 15 minutes acclimation at 37° C. prior to use. The compound of formula (I-A) or positive control, diclofenac (10 μM), in KHB was then added to the hepatocytes to achieve a final concentration of 10 μM and cell concentration of 1×10^6 cells/mL (1000 μL final incubation volume). Cells were incubated for zero or 3 hours. At the end of the incubation period, the cells were quenched with 6-volumes of ice-cold acetonitrile containing 0.02% formic acid, vortexed and sonicated (5 min). Precipitated proteins were pelleted by centrifugation (3000 rpm, 10 minutes, 4° C.) and the supernatant was transferred to borosilicate tubes and evaporated to dryness under a gentle stream of nitrogen.
The resulting residue after evaporation was reconstituted in 250 μL of water:acetonitrile (9:1 v/v) containing 0.01% formic acid with sonication and vortexing to aid solubilization of drug-derived materials prior to filtration using 0.45μ nylon filter at 10,000×g at room temperature for 10 minutes. The filtrate was transferred to a 96-well plate for liquid chromatography/ultraviolet/mass spectrometry (LC-UV/MS) analysis.
LC/UV/MS (Liquid Chromatography/Ultraviolet/Mass Spectrometry)
LTQ/Orbitrap (Thermo Scientific, Inc., Bremen, Germany) was carried out by data-dependent accurate mass measurements at resolving powers of 15,000 for full scan MS and 7,500 for MS^2 (also known as MS/MS or tandem mass spec) under single ion locked mass mode.
Quantification of the unchanged drug and its metabolites was carried out by integration of the individual chromatographically separated UV peaks and provided the percentage of total peak area.

A short description of the next data set: Rat PK study. It is filed as in vivo, Sprague-Dawley rats. On the procedure:
Biological Example 5: PK Studies
Animals: Male Sprague-Dawley rats (7-8 weeks old, body weight 250-300 g) were kept in plastic cages with free access to standard rat diet (Keaoxieli, Beijing, China) and water. The animals were maintained at a temperature of 20-25° C. with a 12-hour light/dark cycle and relative humidity of 40%-70% before the experiment.
Pharmacokinetics in rats: The cannulation of the jugular vein was pre-treated to the rats 2-3 days prior to the study. Test compound (dissolved in PEG400/water (1:1) or suspended in 0.5% HPMC) was administered orally via oral gavage at a dose of 5 or 10 mg/kg to 3 rats, and test compound (dissolved in 20% HPbCD or PEG400/water (1:1)) was injected to the tail vein at a dose of 1 or 2 mg/kg to 3 rats.
Blood samples (approximately 0.2 ml, each) were collected from the jugular vein at 0 (as a pre-dose), 5 (only for IV administration), 15, 30, 60, 120, 240, 360, 480 and 1440 mins post dose. A volume of 0.2 ml of heparinized 0.9% NaCl injectable solution (50 U/mL) was used to flush each cannula immediately after obtaining each blood sample, in order to prevent blood clotting and to compensate for fluid loss. Blood samples were separated by centrifugation, and approximately 0.1 ml aliquot of plasma was stored at −80° C. until analysis.
LC-MS/MS analysis: The analyte was assayed by a liquid chromatography coupled with tandem mass spectrometry (LC-MS/MS) method. The LC-MS/MS system consisted of a Shimadzu HPLC system (Kyoto, Japan) and API 5500 triple-quadrupole mass spectrometer equipped with a turbo electrospray ionization (ESI) source (AB Sciex, Toronto, Canada). LC conditions were as follows: column, Synergi 2.5μ Polar-RP 100A (50*3.0 mm) (Phenomenex, Torrance, CA); gradient elution at 0.5 mL/min with 5% acetonitrile in water containing 0.1% formic acid or 95% acetonitrile in water containing 0.1% formic acid; and injection volume, 10 μL. A multiple reaction monitoring (MRM) method was selected for quantitative analysis. The optimized transitions were Q1→Q3 and M1→M3 for analyte and internal standard, respectively. The instrumental parameters were set as follows: ion spray voltage: 5500 V; curtain gas: 30 psi; nebulizer gas: 50 psi; turbo gas: 50 psi; collision gas: 10 psi; temperature: 450° C.
Data analysis: Standard methods were used to calculate the pharmacokinetic parameters, such as the total area under the plasma concentration-time curve from time 0 to infinity (AUC0-t) and terminal half-life, using non-compartmental analysis (WinNonlin), the peak plasma concentration (Cmax) and time to reach Cmax (Tmax) were determined directly from the experimental data.

Take `O=C(O)c1nccc(-c2cnc([C@@H]3CC[C@@H]4CC(c5c(-n6cnnn6)ccc(Cl)c5F)=CC(=O)N43)[nH]2)c1F` [Compound of formula (II-A), 4-(2-((3S,8aR)-7-(3-chloro-2-fluoro-6-(1H-tetrazol-1-yl)phenyl)-5-oxo-1,2,3,5,8,8a-hexahydroindolizin-3-yl)-1H-imidazol-5-yl)-3-fluoropicolinic acid]: the “identified as metabolite of the compound of formula (I-A)” value in the data set on human hepatocytes (human hepatocytes, carboxylic acid metabolite) is given as “a metabolite in human hepatocytes”.
As a reminder, the clearance is the volume of plasma or blood freed of the substance per unit of time. What is called Cmax is the highest concentration seen after dosing. As for `O=C1C=C(c2c(-n3cnnn3)ccc(Cl)c2F)C[C@H]2CC[C@@H](c3ncc(-c4ccnc(CO)c4F)[nH]3)N12` [Compound of formula (I-A), (3S,8aR)-7-(3-Chloro-2-fluoro-6-(1H-tetrazol-1-yl)phenyl)-3-(5-(3-fluoro-2-(hydroxymethyl)pyridin-4-yl)-1H-imidazol-2-yl)-2,3,8,8a-tetrahydroindolizin-5(1H)-one], the “turnover in human hepatocytes” value with human hepatocytes (10 μM, 1×10^6 cells/mL, 3 hours) is on record as “low turnover”. Besides, the major metabolic softspot result in the data set with human hepatocytes (human hepatocytes) was “(3-fluoropyridin-2-yl) methanol moiety”. Also, in the data set on human hepatocytes (human hepatocytes, 10 μM, 3 hours), the “metabolites generated from the incubation” value was “three oxidative and two glucuronide metabolites”. In addition, in the data set “Rat PK study” (formulation vehicle: 0.5% HPMC at 10 mg/kg), the F is reported as 53.4% (formulation vehicle: 0.5% HPMC at 10 mg/kg). In the data set “Rat PK study” (male, Sprague-Dawley, plasma, IV, 20% HPbCD at 2 mg/kg), the clearance came out at 19.6 mL/min/kg. The half-life is 195 min in the data set “Rat PK study” (male, Sprague-Dawley, plasma, IV, formulation vehicle: 20% HPbCD at 2 mg/kg, read-out: t1/2 (IV) (converted)) and 160 min in the data set “Rat PK study” (male, Sprague-Dawley, plasma, PO, 0.5% HPMC at 10 mg/kg, read-out: t1/2 (PO) (converted)). Besides, in “Rat PK study” (male, Sprague-Dawley, plasma, PO, 0.5% HPMC at 10 mg/kg), the Cmax stood at 3770 ng/mL.
